# What was measured:
# Assay in all cases: CRE-luciferase
# Type in all cases: cell-based
# [1] = molecular target: T1, Olfr376 (Mus musculus, UniProt Q8VGI2); settings: Hana3A cells, 4 h, 37°C; agonist
# T1 sequence (Q8VGI2 1-317): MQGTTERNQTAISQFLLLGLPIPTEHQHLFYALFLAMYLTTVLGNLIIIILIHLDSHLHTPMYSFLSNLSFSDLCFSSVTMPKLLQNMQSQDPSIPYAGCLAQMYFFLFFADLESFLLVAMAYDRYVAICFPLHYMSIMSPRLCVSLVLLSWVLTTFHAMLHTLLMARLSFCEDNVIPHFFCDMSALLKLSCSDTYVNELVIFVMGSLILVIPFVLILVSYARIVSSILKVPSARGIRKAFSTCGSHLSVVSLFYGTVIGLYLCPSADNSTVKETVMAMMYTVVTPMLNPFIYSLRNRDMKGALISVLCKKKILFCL
# [2] = molecular target: T2, Olfr57 (Mus musculus, UniProt Q8VGU7); settings: Hana3A cells, 4 h, 37°C; agonist
# T2 sequence (Q8VGU7 1-319): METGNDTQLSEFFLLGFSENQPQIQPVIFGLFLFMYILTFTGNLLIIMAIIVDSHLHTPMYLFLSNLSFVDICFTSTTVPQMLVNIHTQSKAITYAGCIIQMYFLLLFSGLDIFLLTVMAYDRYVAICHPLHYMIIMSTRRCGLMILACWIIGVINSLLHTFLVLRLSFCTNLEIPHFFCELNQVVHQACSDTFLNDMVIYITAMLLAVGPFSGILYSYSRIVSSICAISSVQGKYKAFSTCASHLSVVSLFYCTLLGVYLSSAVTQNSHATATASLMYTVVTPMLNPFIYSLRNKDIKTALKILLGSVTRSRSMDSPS
# [3] = molecular target: T3, Olfr491 (Mus musculus, UniProt Q8VG06); settings: Hana3A cells, 4 h, 37°C; agonist
# T3 sequence (Q8VG06 1-310): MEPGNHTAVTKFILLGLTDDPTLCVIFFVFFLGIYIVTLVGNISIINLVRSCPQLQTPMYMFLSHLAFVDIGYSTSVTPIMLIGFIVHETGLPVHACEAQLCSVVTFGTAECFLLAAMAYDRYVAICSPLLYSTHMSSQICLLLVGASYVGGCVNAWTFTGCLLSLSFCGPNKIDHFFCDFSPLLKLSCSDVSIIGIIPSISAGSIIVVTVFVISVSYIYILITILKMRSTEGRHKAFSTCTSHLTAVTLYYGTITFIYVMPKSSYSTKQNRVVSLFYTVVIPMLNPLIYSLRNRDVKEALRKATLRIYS
# [4] = molecular target: T4, Olfr20 (Mus musculus, UniProt Q7TRX9); settings: Hana3A cells, 4 h, 37°C; agonist
# T4 sequence (Q7TRX9 1-314): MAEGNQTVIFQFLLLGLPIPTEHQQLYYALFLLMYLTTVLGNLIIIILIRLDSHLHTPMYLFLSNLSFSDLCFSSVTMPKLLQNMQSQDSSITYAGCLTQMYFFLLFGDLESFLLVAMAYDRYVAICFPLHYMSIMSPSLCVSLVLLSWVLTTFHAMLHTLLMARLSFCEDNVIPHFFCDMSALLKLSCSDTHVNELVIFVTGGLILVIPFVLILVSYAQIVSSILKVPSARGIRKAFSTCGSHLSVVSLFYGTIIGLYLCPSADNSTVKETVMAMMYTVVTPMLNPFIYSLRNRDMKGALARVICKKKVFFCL
# [5] = molecular target: T5, Olfr19 (Mus musculus, UniProt Q9JHB2); settings: Hana3A cells, 10^–9 – 10^–3 M, 4 h, 37°C; agonist
# T5 sequence (Q9JHB2 1-309): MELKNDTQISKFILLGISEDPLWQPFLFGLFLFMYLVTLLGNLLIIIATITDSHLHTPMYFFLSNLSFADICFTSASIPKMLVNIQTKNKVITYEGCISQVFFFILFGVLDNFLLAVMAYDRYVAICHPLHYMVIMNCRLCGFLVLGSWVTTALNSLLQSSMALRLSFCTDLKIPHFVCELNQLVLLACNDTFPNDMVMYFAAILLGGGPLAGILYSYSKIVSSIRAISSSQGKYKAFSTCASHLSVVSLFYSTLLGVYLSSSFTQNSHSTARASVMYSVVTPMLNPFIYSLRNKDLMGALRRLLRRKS
smiles,measurement,setting,value
"CC1=NC(C)SC1C (centres unmarked) [2,5–dihydro–2,4,5–trimethylthiazoline]",CRE-luciferase (Dual-Glo) reporter,[1],"Five of these TMT ORs (Olfr20, Olfr30, Olfr57, Olfr376, Olfr491)"
same,CRE-luciferase (Dual-Glo) reporter,[2],"Five of these TMT ORs (Olfr20, Olfr30, Olfr57, Olfr376, Olfr491)"
same,CRE-luciferase (Dual-Glo) reporter,[3],"Five of these TMT ORs (Olfr20, Olfr30, Olfr57, Olfr376, Olfr491)"
same,CRE-luciferase (Dual-Glo) reporter,[4],"Five of these TMT ORs (Olfr20, Olfr30, Olfr57, Olfr376, Olfr491)"
CC(=O)c1ccccc1 [acetophenone],EC50,[5],"a newly identified acetophenone OR, Olfr19"

# Reference: PMC4583814 (Nature neuroscience, 2015)
